Results reported in patent US20230416232A1, “PYRIMIDINE COMPOUNDS, COMPOSITIONS, AND MEDICINAL APPLICATIONS THEREOF” (Blueprint Medicines Corporation, priority 2020, published 2023).
Where a name gives a salt, the structure may show the parent alone.

Legend:
Assay type in all cases: cell-based
[1] = target: EGFR (A767_dupASV) expressing Ba/F3 stable cell line (Homo sapiens, UniProt P00533, DUP767-769, cells depend on it); experiment: Cellular proliferation (Alamar Blue) assay, EGFR (A767_dupASV) Ba/F3; settings: 72 hr, read-out: A767 IC50
Sequence of EGFR (A767_dupASV) expressing Ba/F3 stable cell line (P00533 with tags, fused parts or gaps DUP767-769): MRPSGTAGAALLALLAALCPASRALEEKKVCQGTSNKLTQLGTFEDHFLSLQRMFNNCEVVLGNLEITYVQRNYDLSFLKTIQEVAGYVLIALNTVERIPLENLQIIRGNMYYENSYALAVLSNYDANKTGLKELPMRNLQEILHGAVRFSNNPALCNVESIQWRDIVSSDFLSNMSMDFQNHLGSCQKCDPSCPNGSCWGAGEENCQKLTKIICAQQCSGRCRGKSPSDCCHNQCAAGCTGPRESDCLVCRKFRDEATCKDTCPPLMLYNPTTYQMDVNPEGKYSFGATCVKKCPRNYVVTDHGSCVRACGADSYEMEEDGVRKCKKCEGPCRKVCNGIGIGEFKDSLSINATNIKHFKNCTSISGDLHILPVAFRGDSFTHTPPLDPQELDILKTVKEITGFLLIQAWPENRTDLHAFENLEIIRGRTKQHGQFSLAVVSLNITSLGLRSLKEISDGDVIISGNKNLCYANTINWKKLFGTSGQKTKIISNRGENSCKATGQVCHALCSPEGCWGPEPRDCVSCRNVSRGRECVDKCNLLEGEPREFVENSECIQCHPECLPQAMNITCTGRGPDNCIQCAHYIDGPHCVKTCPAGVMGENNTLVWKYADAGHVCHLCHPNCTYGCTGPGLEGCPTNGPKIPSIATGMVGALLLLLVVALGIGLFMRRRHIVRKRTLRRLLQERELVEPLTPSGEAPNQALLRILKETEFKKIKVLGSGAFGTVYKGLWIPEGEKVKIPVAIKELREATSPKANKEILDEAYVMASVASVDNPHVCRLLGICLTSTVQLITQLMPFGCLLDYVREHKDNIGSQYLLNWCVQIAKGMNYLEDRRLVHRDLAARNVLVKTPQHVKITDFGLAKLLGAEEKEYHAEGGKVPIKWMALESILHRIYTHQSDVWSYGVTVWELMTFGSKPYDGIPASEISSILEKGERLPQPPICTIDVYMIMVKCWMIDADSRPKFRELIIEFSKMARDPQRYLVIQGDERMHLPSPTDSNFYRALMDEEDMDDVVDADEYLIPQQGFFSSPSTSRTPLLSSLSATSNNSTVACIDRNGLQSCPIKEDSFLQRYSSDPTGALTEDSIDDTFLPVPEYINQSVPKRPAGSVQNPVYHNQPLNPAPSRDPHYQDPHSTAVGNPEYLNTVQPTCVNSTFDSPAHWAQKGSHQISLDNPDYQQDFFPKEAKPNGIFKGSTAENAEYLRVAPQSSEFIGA
Experimental: (§1) Cell line details: • 1. EGFR(D770_N771insSVD) expressing Ba/F3 stable cell line • 2. EGFR (A767_dupASV) expressing Ba/F3 stable cell line • 3. A431 cells • 4. EGFR (H773insNPH) expressing Ba/F3 stable cell line • 5. HER2 (A775_G776insYVMA) expressing Ba/F3 stable cell line
(§2) • 1. Seed cells at 5000 for A431 and 15,000 cells for Ba/F3 in 100 μL/well in complete media (for A431: DMEM with 10% FBS and for Ba/F3 cells: RPMI with 10% FBS) in 96-well tissue culture plate. Leave outer wells without cells for background measurements. Incubate at 37 degree Celsius in 5% CO2 humidified incubator for 16-18 hours. • 2. Add 0.025 ml of 5X concentration compound dilution or DMSO control. Final compound concentration range is 10-0.0005 μM prepared in 3-fold serial dilutions. Incubate for 72 hr at 37 degree Celsius in 5% CO2 humidified incubator. • 3. Add 0.0125 ml Alamar Blue™ reagent to each well with multi-channel pipette and tap gently on each side of the plate to mix. Incubate for 3 hours at 37 degree Celsius in 5% CO2 humidified incubator. • 4. […] Data analysis was performed using XLfit 5.5.0.5.

[2] = target: HER2 (A775_G776insYVMA) expressing Ba/F3 stable cell line (Homo sapiens, UniProt P04626, DUP772-775, cells depend on it); experiment: Cellular proliferation (Alamar Blue) assay, HER2 (A775_G776insYVMA) Ba/F3; settings: HER2 (A775_G776insYVMA) Ba/F3 cells; 72 hr; Alamar Blue; read-out: YVMA IC50
Sequence of HER2 (A775_G776insYVMA) expressing Ba/F3 stable cell line (P04626 with tags, fused parts or gaps DUP772-775): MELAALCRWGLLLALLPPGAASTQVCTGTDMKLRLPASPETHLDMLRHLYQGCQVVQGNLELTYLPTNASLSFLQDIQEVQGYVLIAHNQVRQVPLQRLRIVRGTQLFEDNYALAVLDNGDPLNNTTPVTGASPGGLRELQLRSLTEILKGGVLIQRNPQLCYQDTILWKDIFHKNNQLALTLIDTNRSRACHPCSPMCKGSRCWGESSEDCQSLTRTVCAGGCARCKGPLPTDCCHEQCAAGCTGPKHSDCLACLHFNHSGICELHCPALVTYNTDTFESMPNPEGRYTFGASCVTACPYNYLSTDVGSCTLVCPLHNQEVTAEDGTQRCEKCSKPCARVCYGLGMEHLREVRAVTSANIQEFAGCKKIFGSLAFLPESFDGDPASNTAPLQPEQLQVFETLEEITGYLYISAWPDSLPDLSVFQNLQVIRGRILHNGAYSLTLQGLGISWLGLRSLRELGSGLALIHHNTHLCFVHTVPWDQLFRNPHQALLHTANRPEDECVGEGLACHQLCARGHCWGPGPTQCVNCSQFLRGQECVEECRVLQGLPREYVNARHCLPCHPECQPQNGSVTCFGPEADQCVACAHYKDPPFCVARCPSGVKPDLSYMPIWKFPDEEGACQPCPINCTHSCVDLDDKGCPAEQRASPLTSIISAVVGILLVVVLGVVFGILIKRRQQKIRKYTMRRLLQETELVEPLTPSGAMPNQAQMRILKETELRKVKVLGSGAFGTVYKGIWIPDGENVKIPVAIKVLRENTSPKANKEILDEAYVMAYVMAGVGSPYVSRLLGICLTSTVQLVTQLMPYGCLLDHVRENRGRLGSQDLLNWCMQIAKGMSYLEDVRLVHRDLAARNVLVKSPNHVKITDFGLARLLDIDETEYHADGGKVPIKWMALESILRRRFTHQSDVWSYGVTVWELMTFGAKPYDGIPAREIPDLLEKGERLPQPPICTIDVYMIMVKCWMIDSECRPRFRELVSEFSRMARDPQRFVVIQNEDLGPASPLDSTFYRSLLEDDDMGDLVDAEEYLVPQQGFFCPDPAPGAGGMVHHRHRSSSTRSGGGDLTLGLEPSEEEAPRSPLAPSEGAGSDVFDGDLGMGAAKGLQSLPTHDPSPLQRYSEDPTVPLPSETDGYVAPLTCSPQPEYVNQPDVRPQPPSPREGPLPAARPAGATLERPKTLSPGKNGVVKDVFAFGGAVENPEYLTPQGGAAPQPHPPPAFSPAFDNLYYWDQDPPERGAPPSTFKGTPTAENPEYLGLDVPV
Experimental: as §1, §2

[3] = test system: A431 cells; experiment: Cellular proliferation (Alamar Blue) assay, A431 cells; settings: Homo sapiens, A-431, 72 h, A431 cells; 72 hr; Alamar Blue; read-out: A431 IC50
Experimental: as §2

Row | Structure (SMILES) | GI50 [1] [µM] | GI50 [2] [µM] | IC50 [3] [µM]
1 | C=CC(=O)Nc1ccc(F)c(Nc2nc(Nc3cnn(C)c3)ncc2-c2ccc(Br)cc2F)c1 [Compound 112, N-(3-((5-(4-bromo-2-fluorophenyl)-2-((1-methyl-1H-pyrazol-4-yl)amino)pyrimidin-4-yl)amino)-4-fluorophenyl)acrylamide] | – | 0.923 | 0.497
2 | C=CC(=O)Nc1ccc(F)c(Nc2nc(Nc3cnn(C)c3)ncc2-c2ccc(Br)c(C(F)F)c2)c1 [Compound 118, N-(3-((5-(4-bromo-3-(difluoromethyl)phenyl)-2-((1-methyl-1H-pyrazol-4-yl)amino)pyrimidin-4-yl)amino)-4-fluorophenyl)acrylamide] | – | 0.352 | 0.215
3 | C=CC(=O)Nc1ccc(F)c(Nc2nc(Nc3cnn(C)c3)ncc2-c2cc(F)cc(N3CCC3)c2)c1 [Compound 120, N-(3-((5-(3-(azetidin-1-yl)-5-fluorophenyl)-2-((1-methyl-1H-pyrazol-4-yl)amino)pyrimidin-4-yl)amino)-4-fluorophenyl)acrylamide] | – | > 10 | 9.28
4 | C=CC(=O)Nc1ccc(F)c(Nc2nc(Nc3cnn(C)c3)ncc2-c2cc(F)cc(N3CCCC3)c2)c1 [Compound 121, N-(4-fluoro-3-((5-(3-fluoro-5-(pyrrolidin-1-yl)phenyl)-2-((1-methyl-1H-pyrazol-4-yl)amino)pyrimidin-4-yl)amino)phenyl)acrylamide] | – | > 10 | > 10
5 | C=CC(=O)Nc1ccc(F)c(Nc2nc(Nc3cnn(C)c3)ncc2-c2cc(F)cc(OC(C)C)c2)c1 [Compound 129, N-(4-fluoro-3-((5-(3-fluoro-5-isopropoxyphenyl)-2-((1-methyl-1H-pyrazol-4-yl)amino)pyrimidin-4-yl)amino)phenyl)acrylamide] | – | > 10 | > 10
6 | C=CC(=O)Nc1ccc(F)c(Nc2nc(Nc3cnn(C)c3)ncc2-c2cc(F)cc(OCC3CC3)c2)c1 [Compound 130, N-(3-((5-(3-(cyclopropylmethoxy)-5-fluorophenyl)-2-((1-methyl-1H-pyrazol-4-yl)amino)pyrimidin-4-yl)amino)-4-fluorophenyl)acrylamide] | – | > 10 | > 10
7 | C=CC(=O)Nc1ccc(F)c(Nc2nc(Nc3cnn(C)c3)ncc2-c2ccc(Br)c(OC)c2)c1 [Compound 134, N-(3-((5-(4-bromo-3-methoxyphenyl)-2-((1-methyl-1H-pyrazol-4-yl)amino)pyrimidin-4-yl)amino)-4-fluorophenyl)acrylamide] | – | 0.453 | 0.238
8 | COc1cc(F)cc(-c2cnc(Nc3cnn(C)c3)nc2Nc2cc(NC(=O)/C=C/CN(C)C)ccc2F)c1 [Compound 144, (E)-4-(dimethylamino)-N-(4-fluoro-3-((5-(3-fluoro-5-methoxyphenyl)-2-((1-methyl-1H-pyrazol-4-yl)amino)pyrimidin-4-yl)amino)phenyl)but-2-enamide] | – | 0.97 | 4.88
9 | [2H]c1ccc(NC(=O)C=C)cc1Nc1nc(Nc2cnn(C)c2)ncc1-c1cc(F)cc(OC)c1 [Compound 145, N-(3-((5-(3-fluoro-5-methoxyphenyl)-2-((1-methyl-1H-pyrazol-4-yl)amino)pyrimidin-4-yl)amino)phenyl-4-d)acrylamide] | – | 0.264 | 0.388

Other lines, results leading:

Row | GI50 [1] [µM] | GI50 [2] [µM] | IC50 [3] [µM] | Structure (SMILES)
10 | 0.061 | 0.164 | 0.013 | C=CC(=O)Nc1ccc(F)c(Nc2nc(Nc3cnn(C)c3)ncc2-c2cc(F)c(C(F)(F)F)c(F)c2)c1 [Compound 20, N-(3-((5-(3,5-difluoro-4-(trifluoromethyl)phenyl)-2-((1-methyl-1H-pyrazol-4-yl)amino)pyrimidin-4-yl)amino)-4-fluorophenyl)acrylamide trifluoroacetate]
11 | 0.011 | 0.037 | – | C=CC(=O)Nc1ccc(F)c(Nc2nc(Nc3cnn(C)c3)ncc2-c2cnc(C(F)(F)F)c(F)c2)c1 [Compound 61, N-(4-fluoro-3-((5-(5-fluoro-6-(trifluoromethyl)pyridin-3-yl)-2-((l-methyl-1H-pyrazol-4-yl)amino)pyrimidin-4-yl)amino)phenyl)acrylamide]
12 | – | 7.34 | 3.13 | C=CC(=O)Nc1ccc(F)c(Nc2nc(Nc3cnn(C)c3)ncc2-c2ccc(F)cc2C(F)(F)F)c1 [Compound 107, N-(4-fluoro-3-((5-(4-fluoro-2-(trifluoromethyl)phenyl)-2-((1-methyl-1H-pyrazol-4-yl)amino)pyrimidin-4-yl)amino)phenyl)acrylamide]
13 | – | 5.78 | 0.819 | C=CC(=O)Nc1ccc(F)c(Nc2nc(Nc3cn(C)nc3Cl)ncc2-c2ccc(OC)c(OC)c2)c1 [Compound 110, N-(3-((2-((3-chloro-1-methyl-1H-pyrazol-4-yl)amino)-5-(3,4-dimethoxyphenyl)pyrimidin-4-yl)amino)-4-fluorophenyl)acrylamide]
14 | – | 1.08 | 0.164 | C=CC(=O)Nc1ccc(F)c(Nc2nc(Nc3cnn(C)c3)ncc2-c2ccc3c(c2)OCCO3)c1 [Compound 111, N-(3-((5-(2,3-dihydrobenzo[b][1,4]dioxin-6-yl)-2-((1-methyl-1H-pyrazol-4-yl)amino)pyrimidin-4-yl)amino)-4-fluorophenyl)acrylamide]
15 | – | 4.57 | 0.077 | C=CC(=O)Nc1ccc(F)c(Nc2nc(Nc3cnn(C)c3)ncc2-c2ccc3c(c2)OC(C)(C)O3)c1 [Compound 114, N-(3-((5-(2,2-dimethylbenzo[d][1,3]dioxol-5-yl)-2-((1-methyl-1H-pyrazol-4-yl)amino)pyrimidin-4-yl)amino)-4-fluorophenyl)acrylamide]
16 | – | > 10 | 3.52 | C=CC(=O)Nc1ccc(F)c(Nc2nc(Nc3cnn(C)c3)ncc2-c2cc(OC)cc(OC)c2)c1 [Compound 116, N-(3-((5-(3,5-dimethoxyphenyl)-2-((1-methyl-1H-pyrazol-4-yl)amino)pyrimidin-4-yl)amino)-4-fluorophenyl)acrylamide]
17 | – | 5.2 | 1.16 | C=CC(=O)Nc1ccc(F)c(Nc2nc(Nc3cnn(C)c3)ncc2-c2ccc(Br)c(N(C)C)c2)c1 [Compound 119, N-(3-((5-(4-bromo-3-(dimethylamino)phenyl)-2-((1-methyl-1H-pyrazol-4-yl)amino)pyrimidin-4-yl)amino)-4-fluorophenyl)acrylamide]
18 | – | 0.669 | 0.29 | C=CC(=O)Nc1ccc(F)c(Nc2nc(Nc3cnn(C)c3)ncc2-c2ccc(OCc3cccc(F)c3)c(Cl)c2)c1 [Compound 122, N-{3-[(5-{3-chloro-4-[(3-fluorophenyl)methoxy]phenyl}-2-[(1-methyl-1H-pyrazol-4-yl)amino]pyrimidin-4-yl)amino]-4-fluorophenyl}prop-2-enamide]
19 | – | 0.738 | 0.301 | Cn1cc(Nc2ncc(-c3ccc(Br)c(F)c3)c(Nc3cc(NC(=O)/C=C/CN4CCCCC4)ccc3F)n2)cn1 [Compound 142, (E)-N-(3-((5-(4-bromo-3-fluorophenyl)-2-((1-methyl-1H-pyrazol-4-yl)amino)pyrimidin-4-yl)amino)-4-fluorophenyl)-4-(piperidin-1-yl)but-2-enamide]
20 | – | 0.309 | 0.019 | C=CC(=O)Nc1ccc(F)c(Nc2nc(Nc3cnn(C)c3)ncc2-c2cc(F)c(N(C)C)c(F)c2)c1 [Compound 156, N-(3-((5-(4-(dimethylamino)-3,5-difluorophenyl)-2-((1-methyl-1H-pyrazol-4-yl)amino)pyrimidin-4-yl)amino)-4-fluorophenyl)acrylamide]
